This passage reports IC50 results from patent publication US20260092074A1, “Annelated Pyridines as Steroidogenesis Inhibitors, Preparation Method and Use Thereof” (Guangzhou Vinnocent Pharmaceutical Limited, priority 2022, published 2026).

The target of one test is T1, human CYP11B1 (Homo sapiens, UniProt P15538).
T1 construct: expressed in transfected cells
T1 sequence (P15538 25-503): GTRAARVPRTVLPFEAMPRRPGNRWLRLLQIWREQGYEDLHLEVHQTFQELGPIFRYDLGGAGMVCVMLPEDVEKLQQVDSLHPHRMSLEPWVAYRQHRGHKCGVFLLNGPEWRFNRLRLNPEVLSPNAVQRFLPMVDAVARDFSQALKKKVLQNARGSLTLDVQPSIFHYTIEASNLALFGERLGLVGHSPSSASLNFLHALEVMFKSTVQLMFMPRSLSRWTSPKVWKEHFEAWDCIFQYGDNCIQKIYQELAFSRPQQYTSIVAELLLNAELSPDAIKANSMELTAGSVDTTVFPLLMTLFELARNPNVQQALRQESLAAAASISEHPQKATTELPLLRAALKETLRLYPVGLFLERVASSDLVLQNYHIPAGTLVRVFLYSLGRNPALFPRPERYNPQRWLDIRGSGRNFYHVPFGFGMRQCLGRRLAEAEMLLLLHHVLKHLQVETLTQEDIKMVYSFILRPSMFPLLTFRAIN
Put plainly: Inhibition of hCYP11B1 in transfected V79 cells. The class given is cell-based. The note with it: hamster V79 cells expressing human CYP11B1; substrate 11-deoxycortisol 200 nM. The gist of the method:
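Reactions started with 200 nM 11-deoxycortisol, ran for 30 min and were stopped with ethyl acetate, after a 2 h compound preincubation. The host was stably transfected V79 hamster cells carrying human CYP11B1 plus rat P450 reductase. Percent inhibition, from LC-MS/MS or HPLC (260 nm) quantitation of substrate and product, gave the IC50.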

In the next test the target is T2, human CYP11B2 (Homo sapiens, UniProt P19099).
T2 construct: expressed in transfected cells
T2 sequence (P19099 25-503): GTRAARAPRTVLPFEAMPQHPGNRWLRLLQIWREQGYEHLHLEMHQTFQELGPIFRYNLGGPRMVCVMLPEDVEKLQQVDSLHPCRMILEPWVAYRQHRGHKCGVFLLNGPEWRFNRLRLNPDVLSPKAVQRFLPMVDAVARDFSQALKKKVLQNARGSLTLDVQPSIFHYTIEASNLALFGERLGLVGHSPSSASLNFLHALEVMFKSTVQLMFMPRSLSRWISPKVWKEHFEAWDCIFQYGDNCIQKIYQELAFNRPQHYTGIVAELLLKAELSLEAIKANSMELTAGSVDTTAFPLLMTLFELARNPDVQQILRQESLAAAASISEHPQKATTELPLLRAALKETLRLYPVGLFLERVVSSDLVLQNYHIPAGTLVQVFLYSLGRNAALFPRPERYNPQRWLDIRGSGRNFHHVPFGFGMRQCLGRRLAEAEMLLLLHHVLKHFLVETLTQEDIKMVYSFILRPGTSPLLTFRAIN
Briefly: Inhibition of hCYP11B2 in transfected V79 cells. In kind it is cell-based. The settings on record: hamster V79 cells expressing human CYP11B2; substrate 11-deoxycorticosterone 200 nM. The gist of the method:
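The substrate (200 nM, 30 min) was added after a 2 hour compound pre-incubation in lentivirus-transduced V79 cells stably expressing human CYP11B2 plus rat NADPH-P450 reductase.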

The term IC50 denotes the midpoint of a concentration-inhibition curve. For `N#Cc1ccc(-c2cncc3c2OCCN3S(=O)(=O)c2cccc(C(F)(F)F)c2)cc1` [O12, 4-(4-((3-(Trifluoromethyl)phenyl)sulfonyl)-3,4-dihydro-2H-pyrido[4,3-b][1,4]oxazin-8-yl)benzonitrile], the concentration for half-maximal inhibition (IC50) on human CYP11B1 is 0.74 nM; at human CYP11B2, 0.18 nM.
Consider `N#Cc1ccc(-c2cncc3c2OCCN3S(=O)(=O)c2cccnc2)cc1` [O13, 4-(4-(Pyridin-3-ylsulfonyl)-3,4-dihydro-2H-pyrido[4,3-b][1,4]oxazin-8-yl)benzonitrile], for which the figures for the IC50 on human CYP11B1 and against human CYP11B2 were 0.31 nM and 0.48 nM, respectively.
The matching figures for `CS(=O)(=O)N1CCOc2c(-c3ccc(C#N)cc3)cncc21` [O14, 4-(4-(Methylsulfonyl)-3,4-dihydro-2H-pyrido[4,3-b][1,4]oxazin-8-yl)benzonitrile]: 0.41 nM and 0.2 nM.
The matching figures for `N#Cc1ccc(-c2cncc3c2OCCN3S(=O)(=O)c2cccc3cccnc23)cc1` [O15, 4-(4-(Quinolin-8-ylsulfonyl)-3,4-dihydro-2H-pyrido[4,3-b][1,4]oxazin-8-yl)benzonitrile]: 1.46 nM and 0.25 nM.
Turning to `N#Cc1ccc(-c2cncc3c2OCCN3S(=O)(=O)c2cccs2)cc1` [O16, 4-(4-(Thiophen-2-ylsulfonyl)-3,4-dihydro-2H-pyrido[4,3-b][1,4]oxazin-8-yl)benzonitrile], the results for the concentration for half-maximal inhibition (IC50) at human CYP11B1 and on human CYP11B2 were 0.04 nM and 0.56 nM, respectively.
In the case of `N#Cc1ccc(-c2cncc3c2OCCN3S(=O)(=O)c2cccc3ccccc23)cc1` [O17, 4-(4-(Naphthalen-1-ylsulfonyl)-3,4-dihydro-2H-pyrido[4,3-b][1,4]oxazin-8-yl)benzonitrile], the values for the IC50 at human CYP11B1 and against human CYP11B2 were 6.5 nM and 0.39 nM, respectively.
The matching figures for `N#Cc1ccc(-c2cncc3c2OCCN3S(=O)(=O)c2ccc3ccccc3c2)cc1` [O18, 4-(4-(Naphthalen-2-ylsulfonyl)-3,4-dihydro-2H-pyrido[4,3-b][1,4]oxazin-8-yl)benzonitrile]: 0.91 nM and 0.2 nM.
The matching figures for `N#Cc1ccc(-c2cncc3c2OCCN3C(=O)c2ccc(F)cc2)cc1` [O19, 4-(4-(4-Fluorobenzoyl)-3,4-dihydro-2H-pyrido[4,3-b][1,4]oxazin-8-yl)benzonitrile]: 1350 nM and 23.1 nM.
The corresponding values for `N#Cc1ccc(-c2cncc3c2OCCN3C(=O)c2cccc(F)c2)cc1` [O20, 4-(4-(3-Fluorobenzoyl)-3,4-dihydro-2H-pyrido[4,3-b][1,4]oxazin-8-yl)benzonitrile] are 1730 nM and 25.2 nM.
As to `N#Cc1ccc(-c2cncc3c2OCCN3C(=O)c2ccccc2F)cc1` [O21, 4-(4-(2-Fluorobenzoyl)-3,4-dihydro-2H-pyrido[4,3-b][1,4]oxazin-8-yl)benzonitrile], the IC50 against human CYP11B1 is 1130 nM; on human CYP11B2, 26.1 nM.
Regarding `COc1ccc(C(=O)N2CCOc3c(-c4ccc(C#N)cc4)cncc32)cc1` [O22, 4-(4-(4-Methoxybenzoyl)-3,4-dihydro-2H-pyrido[4,3-b][1,4]oxazin-8-yl)benzonitrile], the IC50 amounted to 3400 nM against human CYP11B1 and 108 nM against human CYP11B2.
The matching figures for `COc1cccc(C(=O)N2CCOc3c(-c4ccc(C#N)cc4)cncc32)c1` [O23, 4-(4-(3-Methoxybenzoyl)-3,4-dihydro-2H-pyrido[4,3-b][1,4]oxazin-8-yl)benzonitrile]: 516 nM and 29.5 nM.
The corresponding values for `N#Cc1ccc(-c2cncc3c2OCCN3C(=O)c2ccc(C(F)(F)F)cc2)cc1` [O24, 4-(4-(4-(Trifluoromethyl)benzoyl)-3,4-dihydro-2H-pyrido[4,3-b][1,4]oxazin-8-yl)benzonitrile] are 85.6 nM and 19.7 nM.
The corresponding values for `N#Cc1ccc(-c2cncc3c2OCCN3C(=O)c2cccc(C(F)(F)F)c2)cc1` [O25, 4-(4-(3-(Trifluoromethyl)benzoyl)-3,4-dihydro-2H-pyrido[4,3-b][1,4]oxazin-8-yl)benzonitrile] are 476 nM and 18.1 nM.
For the molecule `N#Cc1ccc(-c2cncc3c2OCCN3C(=O)c2ccc([N+](=O)[O-])cc2)cc1` [O26, 4-(4-(4-Nitrobenzoyl)-3,4-dihydro-2H-pyrido[4,3-b][1,4]oxazin-8-yl)benzonitrile], the IC50 against human CYP11B1 stood at 1450 nM; on human CYP11B2, 22.4 nM.
As for `N#Cc1ccc(-c2cncc3c2OCCN3C(=O)c2cccc([N+](=O)[O-])c2)cc1` [O27, 4-(4-(3-Nitrobenzoyl)-3,4-dihydro-2H-pyrido[4,3-b][1,4]oxazin-8-yl)benzonitrile], the IC50 against human CYP11B1 was 1200 nM; at human CYP11B2, 23.6 nM.
The matching figures for `N#Cc1ccc(-c2cncc3c2OCCN3C(=O)c2ccc(Cl)cc2)cc1` [O28, 4-(4-(4-Chlorobenzoyl)-3,4-dihydro-2H-pyrido[4,3-b][1,4]oxazin-8-yl)benzonitrile]: 277 nM and 20.9 nM.
The corresponding values for `N#Cc1ccc(-c2cncc3c2OCCN3C(=O)c2cccc(Cl)c2)cc1` [O29, 4-(4-(3-Chlorobenzoyl)-3,4-dihydro-2H-pyrido[4,3-b][1,4]oxazin-8-yl)benzonitrile] are 1710 nM and 5.9 nM.
Take `N#Cc1ccc(-c2cncc3c2OCCN3C(=O)c2cccnc2)cc1` [O30, 4-(4-Nicotinoyl-3,4-dihydro-2H-pyrido[4,3-b][1,4]oxazin-8-yl)benzonitrile]: the values for the IC50 against human CYP11B1 and against human CYP11B2 were 4690 nM and 110 nM, respectively.
The matching figures for `N#Cc1ccc(-c2cncc3c2OCCN3C(=O)c2ccco2)cc1` [O31, 4-(4-(Furan-2-carbonyl)-3,4-dihydro-2H-pyrido[4,3-b][1,4]oxazin-8-yl)benzonitrile]: 187 nM and 2.8 nM.
The corresponding values for `N#CCC(=O)N1CCOc2c(-c3ccc(C#N)cc3)cncc21` [O32, 4-(4-(2-Cyanoacetyl)-3,4-dihydro-2H-pyrido[4,3-b][1,4]oxazin-8-yl)benzonitrile] are 785 nM and 18 nM.
The corresponding values for `N#Cc1ccc(-c2cncc3c2OCCN3C(=O)CCl)cc1` [O33, 4-(4-(2-Chloroacetyl)-3,4-dihydro-2H-pyrido[4,3-b][1,4]oxazin-8-yl)benzonitrile] are 1270 nM and 18.3 nM.
Take `N#Cc1ccc(-c2cncc3c2OCCN3C(=O)CBr)cc1` [O34, 4-(4-(2-Bromoacetyl)-3,4-dihydro-2H-pyrido[4,3-b][1,4]oxazin-8-yl)benzonitrile]: the figures for the IC50 at human CYP11B1 and against human CYP11B2 were 546 nM and 17.4 nM, respectively.
The matching figures for `N#Cc1ccc(-c2cncc3c2OCCN3C(=O)C(F)(F)F)cc1` [O35, 4-(4-(2,2,2-Trifluoroacetyl)-3,4-dihydro-2H-pyrido[4,3-b][1,4]oxazin-8-yl)benzonitrile]: 101 nM and 0.9 nM.
The matching figures for `N#Cc1ccc(-c2cncc3c2OCCN3C(=O)Cc2ccc(F)cc2)cc1` [O36, 4-(4-(2-(4-Fluorophenyl)acetyl)-3,4-dihydro-2H-pyrido[4,3-b][1,4]oxazin-8-yl)benzonitrile]: 262 nM and 1.8 nM.
The corresponding values for `N#Cc1ccc(-c2cncc3c2OCCN3C(=O)Cc2cccc(F)c2)cc1` [O37, 4-(4-(2-(3-Fluorophenyl)acetyl)-3,4-dihydro-2H-pyrido[4,3-b][1,4]oxazin-8-yl)benzonitrile] are 86 nM and 1.4 nM.
As for `N#Cc1ccc(-c2cncc3c2OCCN3C(=O)Cc2ccc(Cl)cc2)cc1` [O38, 4-(4-(2-(4-Chlorophenyl)acetyl)-3,4-dihydro-2H-pyrido[4,3-b][1,4]oxazin-8-yl)benzonitrile], the IC50 against human CYP11B1 is 559 nM; against human CYP11B2, 16.8 nM.
The corresponding values for `N#Cc1ccc(-c2cncc3c2OCCN3C(=O)Cc2cccc(Cl)c2)cc1` [O39, 4-(4-(2-(3-Chlorophenyl)acetyl)-3,4-dihydro-2H-pyrido[4,3-b][1,4]oxazin-8-yl)benzonitrile] are 142 nM and 2.6 nM.
The matching figures for `COc1ccc(CC(=O)N2CCOc3c(-c4ccc(C#N)cc4)cncc32)cc1` [O40, 4-(4-(2-(4-Methoxyphenyl)acetyl)-3,4-dihydro-2H-pyrido[4,3-b][1,4]oxazin-8-yl)benzonitrile]: 73 nM and 0.8 nM.
